According to ChEMBL document CHEMBL1177683, “Synthesis and pharmacological evaluation of pyrazine N-acylhydrazone derivatives designed as novel analgesic and anti-inflammatory drug candidates” (2010):

Columns and labels:
Type in all cases: functional
Mus musculus [1] = test: Analgesic activity in Swiss mouse assessed as increase in latency of paw licking at 15 umol/kg, ip after 60 mins measured for 60 seconds by hot plate test (reference value: 4.9 +/- 0.5 seconds)
Mus musculus [2] = test: Analgesic activity in Swiss mouse assessed as increase in latency of paw licking at 15 umol/kg, ip after 120 mins measured for 60 seconds by hot plate test (reference value: 5.6 +/- 0.5 seconds)
Mus musculus [3] = test: Analgesic activity in Swiss mouse assessed as increase in latency of paw licking at 15 umol/kg, ip after 90 mins measured for 60 seconds by hot plate test (reference value: 5.9 +/- 0.8 seconds)
Mus musculus [4] = test: Analgesic activity in Swiss mouse assessed as increase in latency of paw licking at 15 umol/kg, ip after 150 mins measured for 60 seconds by hot plate test (reference value: 5.1 +/- 0.4 seconds)

Structure (SMILES): CN1CC[C@]23c4c5ccc(O)c4O[C@H]2[C@@H](O)C=C[C@H]3[C@H]1C5 [MORPHINE]
- Time (Mus musculus [1]): 12.8 s
- Time (Mus musculus [2]): 9.7 s
- Time (Mus musculus [3]): 10.3 s
- Time (Mus musculus [4]): 9.7 s
